Reference: the CheMixHub viscosity set
Where “and” joins values, the source holds several entries; their conditions need not be identical. Equal entries are not always repeated.

Assay: xn = mol fraction of the nth substance listed

O=C([O-])[O-].[Na+].[Na+] + O
Settings | viscosity
293.15 K, 101.33 kPa, x1 = 0.0032 | 1.085 mPa·s
293.15 K, 101.33 kPa, x1 = 0.0051 | 1.152 mPa·s
293.15 K, 101.33 kPa, x1 = 0.008 | 1.264 mPa·s
293.15 K, 101.33 kPa, x1 = 0.0115 | 1.414 mPa·s
293.15 K, 101.33 kPa, x1 = 0.0152 | 1.593 mPa·s
293.15 K, 101.33 kPa, x1 = 0.0197 | 1.844 mPa·s
293.15 K, 101.33 kPa, x1 = 0.0224 | 2.015 mPa·s
293.15 K, 101.33 kPa, x1 = 0.0255 | 2.232 mPa·s
293.15 K, 101.33 kPa, x1 = 0.0288 | 2.49 mPa·s
293.65 K, 100 kPa, x1 = 0.00502 | 1.145 mPa·s
298.15 K, 101 kPa, x1 = 0.0002 | 0.95 mPa·s
298.15 K, 101 kPa, x1 = 0.001 | 0.95 mPa·s
298.15 K, 101 kPa, x1 = 0.0027 | 0.99 mPa·s
298.15 K, 101 kPa, x1 = 0.00397 | 1.01 mPa·s
298.15 K, 101.33 kPa, x1 = 0.0032 | 0.96 mPa·s
298.15 K, 101.33 kPa, x1 = 0.0051 | 1.018 mPa·s
298.15 K, 101.33 kPa, x1 = 0.008 | 1.113 mPa·s
298.15 K, 101.33 kPa, x1 = 0.0115 | 1.242 mPa·s
298.15 K, 101.33 kPa, x1 = 0.0152 | 1.395 mPa·s
298.15 K, 101.33 kPa, x1 = 0.0197 | 1.609 mPa·s
298.15 K, 101.33 kPa, x1 = 0.0224 | 1.753 mPa·s
298.15 K, 101.33 kPa, x1 = 0.0255 | 1.937 mPa·s
298.15 K, 101.33 kPa, x1 = 0.0288 | 2.155 mPa·s
301.15 K, 100 kPa, x1 = 0.0101 | 1.115 mPa·s and 1.117 mPa·s
303.15 K, 101 kPa, x1 = 0.002 | 0.836 mPa·s
303.15 K, 101 kPa, x1 = 0.005 | 0.923 mPa·s
303.15 K, 101 kPa, x1 = 0.009 | 1.026 mPa·s
303.15 K, 101.33 kPa, x1 = 0.0032 | 0.864 mPa·s
303.15 K, 101.33 kPa, x1 = 0.0051 | 0.915 mPa·s
303.15 K, 101.33 kPa, x1 = 0.008 | 0.998 mPa·s
303.15 K, 101.33 kPa, x1 = 0.0115 | 1.11 mPa·s
303.15 K, 101.33 kPa, x1 = 0.0152 | 1.244 mPa·s
303.15 K, 101.33 kPa, x1 = 0.0197 | 1.429 mPa·s
303.15 K, 101.33 kPa, x1 = 0.0224 | 1.554 mPa·s
303.15 K, 101.33 kPa, x1 = 0.0255 | 1.712 mPa·s
303.15 K, 101.33 kPa, x1 = 0.0288 | 1.9 mPa·s
306.65 K, 100 kPa, x1 = 0.0101 | 0.987 mPa·s
308.15 K, 101 kPa, x1 = 0.002 | 0.763 mPa·s
308.15 K, 101 kPa, x1 = 0.005 | 0.842 mPa·s
308.15 K, 101 kPa, x1 = 0.009 | 0.931 mPa·s
308.65 K, 100 kPa, x1 = 0.00502 | 0.825 mPa·s
311.15 K, 100 kPa, x1 = 0.0168 | 1.1 mPa·s
311.15 K, 100 kPa, x1 = 0.02299 | 1.331 mPa·s and 1.332 mPa·s
313.15 K, 101 kPa, x1 = 0.0002 | 0.7 mPa·s
313.15 K, 101 kPa, x1 = 0.001 | 0.7 mPa·s
313.15 K, 101 kPa, x1 = 0.002 | 0.694 mPa·s
313.15 K, 101 kPa, x1 = 0.0027 | 0.72 mPa·s
313.15 K, 101 kPa, x1 = 0.00397 | 0.74 mPa·s
313.15 K, 101 kPa, x1 = 0.005 | 0.763 mPa·s
313.15 K, 101 kPa, x1 = 0.009 | 0.846 mPa·s

O=S(=O)([O-])c1ccc(O)cc1.[Na+] + O
viscosity [mPa·s], 101 kPa
Settings | x1 = 9e-05 | x1 = 0.00018 | x1 = 0.0009 | x1 = 0.0018 | x1 = 0.00448 | x1 = 0.00893 | x1 = 0.0133 | x1 = 0.0177
298.15 K | 0.899 | 0.9 | 0.915 | 0.931 | 0.988 | 1.085 | 1.196 | 1.321
318.15 K | 0.598 | 0.599 | 0.608 | 0.62 | 0.656 | 0.715 | 0.786 | 0.86

OC[C@@H](O)[C@H](O)[C@@H](O)CO + O
viscosity [mPa·s], 101.3 kPa
Settings | x1 = 0.00359 | x1 = 0.007154 | x1 = 0.0107 | x1 = 0.01421 | x1 = 0.0177 | x1 = 0.02631 | x1 = 0.03478 | x1 = 0.0431 | x1 = 0.05127
293.15 K | 1.06 | 1.14 | – | 1.32 | – | 1.72 | 2.09 | 2.42 | 2.85
303.15 K | 0.85 | 0.91 | 0.99 | 1.04 | – | 1.33 | 1.53 | 1.8 | 2.1
313.15 K | 0.69 | 0.78 | 0.79 | 0.83 | 0.9 | 1.02 | 1.19 | 1.38 | 1.6
323.15 K | 0.58 | 0.62 | – | 0.69 | 0.75 | 0.85 | 0.96 | 1.1 | 1.25
